Test results taken from patent US12123048B2, “Fluorinated 4′-alkylumbelliferyl a-D-glucopyranosides, biological sterilization indicators including the same and methods of using the same” (3M INNOVATIVE PROPERTIES COMPANY, priority 2018, dated 2024).

Test: Fluorescence of control wells containing enzyme substrate in LB broth without spores
Format: physicochemical
Settings: substrate 0.3 mg/mL, 60° C.
Description: Luria-Bertani (LB) broth was prepared by dissolving tryptone (10 g/L), yeast extract (5 g/L), and NaCl (5 g/L) in deionized water. In the examples, 6′-fluoro-4′-methylumbelliferyl α-D-glucopyranoside (0.3 mg/mL) or 5′-fluoro-4′-methylumbelliferyl α-D-glucopyranoside (0.3 mg/mL) was added to the broth. In the comparative examples, 4′-methylumbelliferyl α-D-glucopyranoside (MUG) (0.3 mg/mL) or 6′,8′-Difluoro-4′-methylumbelliferyl α-D-glucopyranoside (0.3 mg/mL) was added to the broth. The pH of the broth was adjusted to either pH 6, pH 7, pH 8, or pH 9 using 0.1 N hydrochloric acid or 1N sodium hydroxide solutions. The broth was passed through a 0.22 micron filter prior to use.
LB broth (pH 6) containing 6′-fluoro-4′-methylumbelliferyl α-D-glucopyranoside (0.3 mg/mL) (enzyme substrate of Example 1) was added to two wells (100 microliters per well) of a black 96-well microtiter plate with optically clear, flat bottom wells (NUNC #165301, Thermo Fisher Scientific, Waltham, MA). A 5 microliter aqueous suspension containing 5×10^6 Geobacillus stearothermophilus spores (ATCC 7953) was added to each well of the microtiter plate. Next, the contents of each well were mixed using a multiple aspiration/delivery sequence with the pipet. […] The top of the plate was covered with an optically clear sealing film (product #4311971, Applied Biosystems Corporation, Foster City, CA). The plate was warmed at 60° C. and shaken in a linear direction. Fluorescence readings (360 nm excitation/450 nm emission at 50% gain) were taken from the bottom of the plate. A reading was taken at an initial time point of 10 seconds and then at +1 minute intervals thereafter. A Synergy Neo2 fluorescence plate reader (BioTek Company, Winooski, VT) was used. In Table 1, the mean fluorescence values detected (RFU) at times of 10 seconds, +5 minutes, +10 minutes, and +30 minutes are reported. The mean fluorescence values detected for the control wells were 978 RFU at 10 seconds; 920 RFU at +5 minutes; 870 RFU at +10 minutes, and 746 RFU at +30 minutes.
LB broth (pH 7) containing 6′-fluoro-4′-methylumbelliferyl α-D-glucopyranoside (0.3 mg/mL) (enzyme substrate of Example 1) was added to two wells (100 microliters per well) of a black 96-well microtiter plate with optically clear, flat bottom wells (NUNC #165301, Thermo Fisher Scientific). A 5 microliter aqueous suspension containing 5×10^6 Geobacillus stearothermophilus spores (ATCC 7953) was added to each well of the microtiter plate. Next, the contents of each well were mixed using a multiple aspiration/delivery sequence with the pipet. […] The top of the plate was covered with an optically clear sealing film (product #4311971, Applied Biosystems Corporation). The plate was warmed at 60° C. and shaken in a linear direction. Fluorescence readings (360 nm excitation/450 nm emission at 50% gain) were taken from the bottom of the plate. A reading was taken at an initial time point of 10 seconds and then at +1 minute intervals thereafter. A Synergy Neo2 fluorescence plate reader (BioTek Company) was used. In Table 2, the mean fluorescence values detected (RFU) at times of 10 seconds, +5 minutes, +10 minutes, and +30 minutes are reported. The mean fluorescence values detected for the control wells were 989 RFU at 10 seconds; 936 RFU at +5 minutes; 895 RFU at +10 minutes, and 763 RFU at +30 minutes.
LB broth (pH 8) containing 6′-fluoro-4′-methylumbelliferyl α-D-glucopyranoside (0.3 mg/mL) (enzyme substrate of Example 1) was added to two wells (100 microliters per well) of a black 96-well microtiter plate with optically clear, flat bottom wells (NUNC #165301, Thermo Fisher Scientific). A 5 microliter aqueous suspension containing 5×10^6 Geobacillus stearothermophilus spores (ATCC 7953) was added to each well of the microtiter plate. Next, the contents of each well were mixed using a multiple aspiration/delivery sequence with the pipet. […]

| mean fluorescence values detected for the control wells (pH 6 LB broth, 10 seconds) | mean fluorescence values detected for the control wells (pH 6 LB broth, +5 minutes) | mean fluorescence values detected for the control wells (pH 6 LB broth, +10 minutes) | mean fluorescence values detected for the control wells (pH 6 LB broth, +30 minutes) | mean fluorescence values detected for the control wells (pH 7 LB broth, 10 seconds) | mean fluorescence values detected for the control wells (pH 7 LB broth, +5 minutes) | mean fluorescence values detected for the control wells (pH 7 LB broth, +10 minutes) | mean fluorescence values detected for the control wells (pH 7 LB broth, +30 minutes) | mean fluorescence values detected for the control wells (pH 8 LB broth, 10 seconds) | mean fluorescence values detected for the control wells (pH 8 LB broth, +5 minutes) | mean fluorescence values detected for the control wells (pH 8 LB broth, +10 minutes) | mean fluorescence values detected for the control wells (pH 8 LB broth, +30 minutes) | mean fluorescence values detected for the control wells (pH 9 LB broth, 10 seconds) | mean fluorescence values detected for the control wells (pH 9 LB broth, +5 minutes) | mean fluorescence values detected for the control wells (pH 9 LB broth, +10 minutes) | mean fluorescence values detected for the control wells (pH 9 LB broth, +30 minutes) | SMILES |
| --- | --- | --- | --- | --- | --- | --- | --- | --- | --- | --- | --- | --- | --- | --- | --- | --- |
| 1,768 RFU | 1,750 RFU | 1,743 RFU | 1,805 RFU | 1,536 RFU | 1,519 RFU | 1,508 RFU | 1,439 RFU | 2,547 RFU | 2,601 RFU | 2,666 RFU | 3,020 RFU | 1,381 RFU | 1,397 RFU | 1,496 RFU | 2,521 RFU | Cc1cc(=O)oc2c(F)c(O[C@H]3O[C@H](CO)[C@@H](O)[C@H](O)[C@H]3O)c(F)cc12 [Comparative Example A, 6′,8′-Difluoro-4′-methylumbelliferyl α-D-glucopyranoside] |
| 868 RFU | 802 RFU | 756 RFU | 656 RFU | 722 RFU | 670 RFU | 636 RFU | 557 RFU | 628 RFU | 569 RFU | 535 RFU | 463 RFU | 494 RFU | 436 RFU | 406 RFU | 338 RFU | Cc1cc(=O)oc2cc(O[C@H]3O[C@H](CO)[C@@H](O)[C@H](O)[C@H]3O)ccc12 [MUG, 4′-methylumbelliferyl-α-D-glucopyranoside] |
| 828 RFU | 784 RFU | 738 RFU | 622 RFU | 720 RFU | 679 RFU | 646 RFU | 547 RFU | 616 RFU | 573 RFU | 538 RFU | 455 RFU | 501 RFU | 449 RFU | 421 RFU | 365 RFU | Cc1cc(=O)oc2cc(O[C@H]3O[C@H](CO)[C@@H](O)[C@H](O)[C@H]3O)cc(F)c12 [Example 2, 5′-Fluoro-4′-methylumbelliferyl α-D-glucopyranoside] |
| 978 RFU | 920 RFU | 870 RFU | 746 RFU | 989 RFU | 936 RFU | 895 RFU | 763 RFU | 940 RFU | 884 RFU | 845 RFU | 723 RFU | 825 RFU | 772 RFU | 738 RFU | 633 RFU | Cc1cc(=O)oc2cc(O[C@H]3O[C@H](CO)[C@@H](O)[C@H](O)[C@H]3O)c(F)cc12 [Example 1, 6′-Fluoro-4′-methylumbelliferyl α-D-glucopyranoside] |
